Measurements published in patent US11926626B2, “Heterocyclic GLP-1 agonists” (Gasherbrum Bio, Inc., priority 2020, dated 2024).

Molecular target: GLP-1 Receptor (Homo sapiens, UniProt P43220)
Experiment: GLP-1R agonist cAMP stimulation assay (HEK293/GLP1R/CRE-Luc cells, HTRF cAMP)
Format: cell-based
Details: 30 min, 37° C.
Procedure: Activation of GLP-1 receptor is known to stimulate cyclic AMP (cAMP) production in cells which indicates primary coupling to the Gαs subunit of the G protein heterotrimeric complex.
To optimize functional activity directed toward Gαs coupling, a HEK293/CRE-Luc cell line developed by HDB stably expressing the GLP-1 Receptor was used. […] 1×10^5 cells/mL HEK293/GLP1R/CRE-LUC(HD Biosciences) cell suspensions prepared with assay buffer[DPBS containing 0.5 mM IBMX (Sigma, Cat #I5879) and 0.1% BSA (GENVIEW, Cat #FA016-100g)], 10 uL cell suspensions were added to each well of previous generated assay plate which already contains 50 nl compound at 200×concentration using ThermoFisher Multidrop Combi (1000 cells/well). Seal the plate and incubate at 37° C. with 5% CO2 for 30 min.
After incubation the cAMP assay signal was generated using cAMP dynamic 2 Kit (Cisbio). 5 μL cAMP-d2 working solution was added to each well, followed with 5 μL Anti-cAMP antibody-cryptate working solution added to each well using ThermoFisher Multidrop Combi. Incubate at room temperature for 1 hour protected from light.

[1] = HEK293/CRE-Luc cells stably expressing GLP-1 Receptor

Chain of GLP-1 Receptor (P43220 24-463): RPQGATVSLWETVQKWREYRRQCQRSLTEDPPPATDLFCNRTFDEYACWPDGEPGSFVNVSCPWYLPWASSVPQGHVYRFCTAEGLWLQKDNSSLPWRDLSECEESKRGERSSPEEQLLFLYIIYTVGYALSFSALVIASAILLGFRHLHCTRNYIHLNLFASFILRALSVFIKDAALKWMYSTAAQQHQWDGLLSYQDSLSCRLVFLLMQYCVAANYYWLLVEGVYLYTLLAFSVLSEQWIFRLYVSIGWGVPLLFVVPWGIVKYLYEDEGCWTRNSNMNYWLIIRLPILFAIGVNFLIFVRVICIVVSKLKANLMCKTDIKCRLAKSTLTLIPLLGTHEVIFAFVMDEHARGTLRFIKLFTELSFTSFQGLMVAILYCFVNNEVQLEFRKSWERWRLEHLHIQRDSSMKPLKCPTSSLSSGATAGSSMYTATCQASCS

O=C(O)c1ccc2nc(CN3CCC(Oc4nc(Cc5ccc(Cl)cc5)ncc4F)CC3)n(C[C@H]3CCOC3)c2n1 [Compound 197a, (R)-2-((4-((2-(4-chlorobenzyl)-5-fluoropyrimidin-4-yl)oxy)piperidin-1-yl)methyl)-3-((tetrahydrofuran-3-yl)methyl)-3H-imidazo[4,5-b]pyridine-5-carboxylic acid]
GLP1R cAMP Stimulation DR: pEC50 [1]: 8.6

COCCn1c(C[C@H]2CC[C@H](Oc3ccnc(Cc4ccc(Cl)cc4)n3)CC2)nc2ccc(C(=O)O)nc21 [Compound 179a, 3-(2-methoxyethyl)-2-{[trans-4-({2-[(4-chlorophenyl)methyl]pyrimidin-4-yl}oxy)cyclohexyl]methyl}-3H-imidazo[4,5-b]pyridine-5-carboxylic acid]
GLP1R cAMP Stimulation DR: pEC50 [1]: 8.6

Cc1cc(Cc2ccc(Cl)cc2)nc(OC2CCN(Cc3nc4ccc(C(=O)O)nc4n3C[C@@H]3CCO3)CC2)c1 [Compound 154a, 2-{[4-({6-[(4-chlorophenyl)methyl]-4-methylpyridin-2-yl}oxy)piperidin-1-yl]methyl}-3-{[(2S)-oxetan-2-yl]methyl}-3H-imidazo[4,5-b]pyridine-5-carboxylic acid]
GLP1R cAMP Stimulation DR: pEC50 [1]: 7.6

O=C(O)c1ccc2nc(CN3CCC(Oc4cccc(Cc5ccc(Cl)cc5F)n4)C3)n(C[C@@H]3CCO3)c2n1 (stereo partly drawn) [Compound 130a, 2-{[3-({6-[(4-chloro-2-fluorophenyl)methyl]pyridin-2-yl}oxy)pyrrolidin-1-yl]methyl}-3-{[(2S)-oxetan-2-yl]methyl}-3H-imidazo[4,5-b]pyridine-5-carboxylic acid]
GLP1R cAMP Stimulation DR: pEC50 [1]: 7.3

O=C(O)c1ccc2nc(C[C@H]3CC[C@H](Oc4nc(Cc5ccc(Cl)cc5)ncc4F)CC3)n(C[C@@H]3CCO3)c2n1 [Compound 188a, 3-{[(2S)-oxetan-2-yl]methyl}-2-{[trans-4-({2-[(4-chlorophenyl)methyl]-5-fluoropyrimidin-4-yl}oxy)cyclohexyl]methyl}-3H-imidazo[4,5-b]pyridine-5-carboxylic acid]
GLP1R cAMP Stimulation DR: pEC50 [1]: 10.3

O=C(O)c1ccc2nc(CN3CCC(Oc4ccnc(Cc5ccc(Cl)cc5F)n4)C(F)(F)C3)n(C[C@@H]3CCO3)c2n1 (stereo partly drawn) [Compound 168a, 2-{[4-({2-[(4-chloro-2-fluorophenyl)methyl]pyrimidin-4-yl}oxy)-3,3-difluoropiperidin-1-yl]methyl}-3-{[(2S)-oxetan-2-yl]methyl}-3H-imidazo[4,5-b]pyridine-5-carboxylic acid]
GLP1R cAMP Stimulation DR: pEC50 [1]: 8.9

O=C(O)c1cnc2nc(CN3CCC(Oc4ccnc(Cc5ccc(Cl)cc5F)n4)CC3)n(C[C@@H]3CCO3)c2c1 [Compound 161a, 2-{[4-({2-[(4-chloro-2-fluorophenyl)methyl]pyrimidin-4-yl}oxy)piperidin-1-yl]methyl}-1-{[(2S)-oxetan-2-yl]methyl}-1H-imidazo[4,5-b]pyridine-6-carboxylic acid]
GLP1R cAMP Stimulation DR: pEC50 [1]: 9.7

O=C(O)c1ccc2nc(C[C@H]3CC[C@@H](Oc4cccc(Cc5ccc(Cl)cc5F)n4)CC3)n(C[C@@H]3CCO3)c2n1 [Compound 174a, 3-{[(2S)-oxetan-2-yl]methyl}-2-{[cis-4-({6-[(4-chloro-2-fluorophenyl)methyl]pyridin-2-yl}oxy)cyclohexyl]methyl}-3H-imidazo[4,5-b]pyridine-5-carboxylic acid]
GLP1R cAMP Stimulation DR: pEC50 [1]: 7.5

O=C(O)c1ccc2nc(C[C@H]3CC[C@H](Oc4cccc(Cc5ccc(Cl)cc5)n4)CC3)n(C[C@@H]3CCO3)c2n1 [Compound 181a, 3-{[(2S)-oxetan-2-yl]methyl}-2-{[trans-4-({6-[(4-chlorophenyl)methyl]pyridin-2-yl}oxy)cyclohexyl]methyl}-3H-imidazo[4,5-b]pyridine-5-carboxylic acid]
GLP1R cAMP Stimulation DR: pEC50 [1]: 10.1

O=C(O)c1ccc2nc(CN3CCC(c4cccc5cn(Cc6ccc(Cl)cc6F)nc45)CC3)n(C[C@@H]3CCO3)c2n1 [Compound 142a, (S)-2-((4-(2-(4-chloro-2-fluorobenzyl)-2H-indazol-7-yl)piperidin-1-yl)methyl)-3-(oxetan-2-ylmethyl)-3H-imidazo[4,5-b]pyridine-5-carboxylic acid]
GLP1R cAMP Stimulation DR: pEC50 [1]: 8.8

O=C(O)c1ccc2nc(CN3CCC(c4cccc5nc(Cc6ccc(Cl)cc6F)oc45)CC3)n(C[C@@H]3CCO3)c2n1 [Compound 143a, (S)-2-((4-(2-(4-chloro-2-fluorobenzyl)benzo[d]oxazol-7-yl)piperidin-1-yl)methyl)-3-(oxetan-2-ylmethyl)-3H-imidazo[4,5-b]pyridine-5-carboxylic acid]
GLP1R cAMP Stimulation DR: pEC50: 9.3

O=C(O)c1ccc2nc(CN3CCC(Oc4ccc(F)c(Cc5ccc(Cl)cc5F)n4)CC3)n(C[C@@H]3CCO3)c2n1 [Compound 150a, (S)-2-((4-((6-(4-chloro-2-fluorobenzyl)-5-fluoropyridin-2-yl)oxy)piperidin-1-yl)methyl)-3-(oxetan-2-ylmethyl)-3H-imidazo[4,5-b]pyridine-5-carboxylic acid]
GLP1R cAMP Stimulation DR: pEC50 [1]: 7.2

O=C(O)c1ccc2nc(CN3CCC(Oc4cccc(Cc5ccc(C6CC6)cc5)n4)CC3)n(C[C@@H]3CCO3)c2n1 [Compound 146a, 2-{[4-({6-[(4-cyclopropylphenyl)methyl]pyridin-2-yl}oxy)piperidin-1-yl]methyl}-3-{[(2S)-oxetan-2-yl]methyl}-3H-imidazo[4,5-b]pyridine-5-carboxylic acid]
GLP1R cAMP Stimulation DR: pEC50 [1]: 9.2

O=C(O)c1ccc2nc(Cc3ccc(Oc4ccnc(Cc5ccc(Cl)cc5)n4)cc3)n(C[C@@H]3CCO3)c2c1 [Compound 187a, 2-{[4-({2-[(4-chlorophenyl)methyl]pyrimidin-4-yl}oxy)phenyl]methyl}-1-{[(2S)-oxetan-2-yl]methyl}-1H-1,3-benzodiazole-6-carboxylic acid]
GLP1R cAMP Stimulation DR: pEC50 [1]: 8.9

O=C(O)c1ccc2nc(CN3CCC(Oc4ccc(=O)n(Cc5ccc(Cl)cc5F)n4)CC3)n(C[C@@H]3CCO3)c2n1 [Compound 144a, 2-{[4-({1-[(4-chloro-2-fluorophenyl)methyl]-6-oxo-1,6-dihydropyridazin-3-yl}oxy)piperidin-1-yl]methyl}-3-{[(2S)-oxetan-2-yl]methyl}-3H-imidazo[4,5-b]pyridine-5-carboxylic acid]
GLP1R cAMP Stimulation DR: pEC50 [1]: 8.3

O=C(O)c1ccc2nc(CN3CCC(Oc4nc(Cc5ccc(Cl)cc5F)ncc4F)CC3)n(C[C@@H]3CCO3)c2n1 [Compound 151a, (S)-2-((4-((2-(4-chloro-2-fluorobenzyl)-5-fluoropyrimidin-4-yl)oxy)piperidin-1-yl)methyl)-3-(oxetan-2-ylmethyl)-3H-imidazo[4,5-b]pyridine-5-carboxylic acid]
GLP1R cAMP Stimulation DR: pEC50 [1]: 10.1

O=C(O)c1ccc2nc(CN3CCC(Oc4cccc(Cn5ccc(Cl)cc5=O)n4)CC3)n(C[C@@H]3CCO3)c2n1 [Compound 149a, 2-{[4-({6-[(4-chloro-2-oxo-1,2-dihydropyridin-1-yl)methyl]pyridin-2-yl}oxy)piperidin-1-yl]methyl}-3-{[(2S)-oxetan-2-yl]methyl}-3H-imidazo[4,5-b]pyridine-5-carboxylic acid]
GLP1R cAMP Stimulation DR: pEC50 [1]: 8.3
